Active and inactive are the calls of the source. The rule behind the calls is not given here.
Tests used:
[1] = Clearance in Sprague-Dawley rat at 1 mg/kg, iv measured upto 24 hrs by LC/MS-MS analysis; format: ADME, organism-based; conditions: in vivo
[2] = MRT(infinity) in Sprague-Dawley rat at 50 mg/kg, po measured upto 24 hrs by LC/MS-MS analysis; format: ADME, organism-based; conditions: in vivo
[3] = Cmax in Sprague-Dawley rat at 50 mg/kg, po measured upto 24 hrs by LC/MS-MS analysis; format: ADME, organism-based; conditions: in vivo
[4] = AUCinfinity in Sprague-Dawley rat at 50 mg/kg, po measured upto 24 hrs by LC/MS-MS analysis; format: ADME, organism-based; conditions: in vivo
PC-3 [5] = assay: Inhibition of cell migration in human PC-3 cells incubated for 48 hrs by wound healing assay; format: functional, cell-based; conditions: dose 2.5-7.5 µM
[6] = Toxicity against NOD-SCID mouse assessed as body weight loss at 25 to 50 mg/kg, IG administered for 21 days; format: organism-based; conditions: in vivo, po, 504 h, dose 25-50 mg/kg, time 21 day
[7] = AUClast in Sprague-Dawley rat at 50 mg/kg, po measured upto 24 hrs by LC/MS-MS analysis; format: ADME, organism-based; conditions: in vivo
MGC-803 [8] = assay: Induction of cell cycle arrest in human MGC-803 cells assessed as cells at G0/G1 phase at 15 uM incubated for 36 hrs by PI staining based flow cytometry (reference value: 57.1%); format: functional
MGC-803 [9] = assay: Induction of cell cycle arrest in human MGC-803 cells assessed as cells at S phase at 15 uM incubated for 24 hrs by PI staining based flow cytometry (reference value: 19.6%); format: functional
PC-3 [10] = assay: Downregulation of SKP2 protein level in human PC-3 cells incubated for 48 hrs by Western blotting analysis; format: functional, cell-based; conditions: dose 5-15 µM
MGC-803 [11] = assay: Upregulation of p21 protein expression in human MGC-803 cells at 15 uM by Western blotting analysis; format: functional, cell-based; conditions: time 6-48 hrs, TDE = time-dependent effect
PC-3 [12] = assay: Induction of cell cycle arrest in human PC-3 cells assessed as cells at G2/M phase at 5 uM incubated for 36 hrs by PI staining based flow cytometry (reference value: 21.3%); format: functional
MGC-803 [13] = assay: Inhibition of cell proliferation in human MGC-803 cells at 2 to 50 uM by MTT assay; format: functional, cell-based; conditions: dose 2-50 µM, time 24-72 hrs, TDE = time-dependent effect
MGC-803 [14] = assay: Antitumor activity against human MGC-803 cells xenografted in IG dosed NOD-SCID mouse assessed as inhibition of tumor proliferation administered for 21 days; format: functional, organism-based; conditions: dose 25-50 mg/kg, time 21.0 day
PC-3 [15] = assay: Induction of cell cycle arrest in human PC-3 cells assessed as cells at G0/G1 phase at 7.5 uM incubated for 36 hrs by PI staining based flow cytometry (reference value: 54.5%); format: functional
PC-3 [16] = assay: Induction of cell cycle arrest in human PC-3 cells assessed as cells at G2/M phase at 15 uM incubated for 6 hrs by PI staining based flow cytometry (reference value: 21.4%); format: functional
[17] = biological target: S-phase kinase-associated protein 2 (Homo sapiens) (UniProt Q13309); assay: Binding affinity to SKP2 in human MGC-803 cells assessed as increase in thermal stability at 57 to 68 degreeC incubated for 4 hrs by CETSA; format: cell-based
[18] = MRT(infinity) in Sprague-Dawley rat at 1 mg/kg, iv measured upto 24 hrs by LC/MS-MS analysis; format: ADME, organism-based; conditions: in vivo
MGC-803 [19] = assay: Inhibition of cell proliferation in human MGC-803 cells incubated for 72 hrs by MTT assay; format: functional, cell-based; conditions: MGC-803, 72 h
MGC-803 [20] = assay: Antitumor activity against human MGC-803 cells xenografted in NOD-SCID mouse assessed as tumor growth inhibition at 25 mg/kg, IG administered for 21 days; format: functional; conditions: MGC-803, po, 504 h, time 21 day, read-out: TGI
MGC-803 [21] = assay: Inhibition of cell proliferation in human MGC-803 cells incubated for 24 to 72 hrs by MTT assay; format: functional, cell-based; conditions: dose 2-50 µM, time 24-72 hrs
MGC-803 [22] = assay: Induction of cell cycle arrest in human MGC-803 cells assessed as cells at G2/M phase at 15 uM incubated for 36 hrs by PI staining based flow cytometry (reference value: 20.6%); format: functional
[23] = Toxicity against NOD-SCID mouse assessed as change in lung morphology at 25 to 50 mg/kg, IG administered for 21 days by H and E staining based assay; format: organism-based; conditions: in vivo, po, 504 h, dose 25-50 mg/kg, time 21 day
PC-3 [24] = assay: Inhibition of cell proliferation in human PC-3 cells incubated for 24 to 72 hrs by MTT assay; format: functional, cell-based; conditions: dose 2-50 µM, time 24-72 hrs
PC-3 [25] = assay: Inhibition of cell proliferation in human PC-3 cells at 2 to 50 uM by MTT assay; format: functional, cell-based; conditions: dose 2-50 µM, time 24-72 hrs, TDE = time-dependent effect
MGC-803 [26] = assay: Induction of cell cycle arrest in human MGC-803 cells assessed as cells at G2/M phase at 15 uM incubated for 6 hrs by PI staining based flow cytometry (reference value: 20.8%); format: functional
MGC-803 [27] = assay: Induction of cell cycle arrest in human MGC-803 cells assessed as cells at G2/M phase at 7.5 uM incubated for 36 hrs by PI staining based flow cytometry (reference value: 20.6%); format: functional
MGC-803 [28] = assay: Inhibition of cell migration in human MGC-803 cells incubated for 48 hrs by wound healing assay; format: functional, cell-based; conditions: dose 2.5-7.5 µM
PC-3 [29] = assay: Induction of cell cycle arrest in human PC-3 cells assessed as cells at G2/M phase at 7.5 uM incubated for 36 hrs by PI staining based flow cytometry (reference value: 21.3%); format: functional
MGC-803 [30] = assay: Antitumor activity against human MGC-803 cells xenografted in NOD-SCID mouse assessed as tumor growth inhibition at 50 mg/kg, IG administered for 21 days; format: functional; conditions: MGC-803, po, 504 h, time 21 day, read-out: TGI
MGC-803 [31] = assay: Inhibition of DNA synthesis in human MGC-803 cells incubated for 24 hrs by EdU staining based fluorescence microscopic analysis; format: functional, cell-based; conditions: dose 2.5-7.5 µM
MGC-803 [32] = assay: Induction of cell cycle arrest in human MGC-803 cells assessed as cells at G0/G1 phase at 7.5 uM incubated for 36 hrs by PI staining based flow cytometry (reference value: 57.1%); format: functional
MGC-803 [33] = assay: Induction of cell cycle arrest in human MGC-803 cells assessed as cells at S phase at 15 uM incubated for 6 hrs by PI staining based flow cytometry (reference value: 19.6%); format: functional
MGC-803 [34] = assay: Induction of cell cycle arrest in human MGC-803 cells assessed as cells at S phase at 15 uM incubated for 12 hrs by PI staining based flow cytometry (reference value: 19.6%); format: functional
MGC-803 [35] = assay: Induction of cell cycle arrest in human MGC-803 cells assessed as cells at S phase at 7.5 uM incubated for 36 hrs by PI staining based flow cytometry (reference value: 18.2%); format: functional
MGC-803 [36] = assay: Induction of cell cycle arrest in human MGC-803 cells assessed as cells at G0/G1 phase at 15 uM incubated for 24 hrs by PI staining based flow cytometry (reference value: 57.9%); format: functional
PC-3 [37] = assay: Induction of cell cycle arrest in human PC-3 cells assessed as cells at G0/G1 phase at 15 uM incubated for 36 hrs by PI staining based flow cytometry (reference value: 54.5%); format: functional
PC-3 [38] = assay: Upregulation of p21 protein expression in human PC-3 cells at 5 to 15 uM incubated for 48 hrs by Western blotting analysis; format: functional, cell-based; conditions: dose 5-15 µM

Chain of S-phase kinase-associated protein 2 (Homo sapiens) (Q13309 whole entry): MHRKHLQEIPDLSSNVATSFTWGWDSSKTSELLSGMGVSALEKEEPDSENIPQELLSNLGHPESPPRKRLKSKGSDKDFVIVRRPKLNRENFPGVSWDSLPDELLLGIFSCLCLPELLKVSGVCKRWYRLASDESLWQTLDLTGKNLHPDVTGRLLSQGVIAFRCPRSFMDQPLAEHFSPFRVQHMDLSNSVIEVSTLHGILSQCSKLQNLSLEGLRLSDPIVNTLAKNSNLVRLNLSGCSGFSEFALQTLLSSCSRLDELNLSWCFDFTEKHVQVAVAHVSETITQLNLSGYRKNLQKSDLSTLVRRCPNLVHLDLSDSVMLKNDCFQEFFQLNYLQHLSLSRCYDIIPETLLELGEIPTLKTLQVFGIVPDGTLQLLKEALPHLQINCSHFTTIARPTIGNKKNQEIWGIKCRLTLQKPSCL

Structure (SMILES): COc1ccc(-c2cc(C)nc3nc(SCc4ccc(Br)cc4)nn23)c(OC)c1
- CL [1]: 24 mL/min/kg
- MRT inf [2]: 10.2 h
- Cmax [3]: 168 ng/mL
- AUC(0-inf) [4]: 1070 ng·h/mL
- inhibition (PC-3 [5]): Dose-Dependent Effect
- Activity [6]: Non-Toxic
- AUC(0-t) at 24 h [7]: 906 ng·h/mL
- Activity (MGC-803 [8]): 39.3%
- Activity (MGC-803 [9]): 38.9%
- Activity (PC-3 [10]): Dose-Dependent Effect
- Activity (MGC-803 [11]): Tde
- Activity (PC-3 [12]): 19.9%
- inhibition (MGC-803 [13]): Tde
- Activity (MGC-803 [14]): Dose-Dependent Effect
- Activity (PC-3 [15]): 39%
- Activity (PC-3 [16]): 20.3%
- Activity [17]: Active
- MRT [18]: 6.28 h
- IC50 (MGC-803 [19]): 10.8 µM
- inhibition in vivo at 25 mg/kg (MGC-803 [20]): 50.9%
- inhibition (MGC-803 [21]): Dose-Dependent Effect
- Activity (MGC-803 [22]): 14.4%
- Activity [23]: Non-Toxic
- inhibition (PC-3 [24]): Dose-Dependent Effect
- inhibition (PC-3 [25]): Tde
- Activity (MGC-803 [26]): 21.9%
- Activity (MGC-803 [27]): 18.7%
- inhibition (MGC-803 [28]): Dose-Dependent Effect
- Activity (PC-3 [29]): 21.9%
- inhibition in vivo at 50 mg/kg (MGC-803 [30]): 76.9%
- inhibition (MGC-803 [31]): Dose-Dependent Effect
- Activity (MGC-803 [32]): 45.1%
- Activity (MGC-803 [33]): 26.8%
- Activity (MGC-803 [34]): 31.2%
- Activity (MGC-803 [35]): 35.8%
- Activity (MGC-803 [36]): 40.4%
- Activity (PC-3 [37]): 30.1%
- Activity (PC-3 [38]): Active

Source: ChEMBL document CHEMBL5579901, “Discovery of Novel [1,2,4]Triazolo[1,5-a]pyrimidine Derivatives as Novel Potent S-Phase Kinase-Associated Protein 2 (SKP2) Inhibitors for the Treatment of Cancer” (J Med Chem, 2024)
